Read-outs that look alike come from different tables or passages of the source. Values belong to the molecule of their own block, whether it stands above or below them.
How the values were obtained:
[1] = system: HCT15 cells (which express P-glycoprotein); assay: Efflux of radiolabelled lopinavir, ritonavir and paclitaxel from HCT15 cells; assay type: cell-based; settings: 1 μM loaded for 1 hour, FIG. 1
Procedure: The medium was aspirated and the cells were washed with PBS (phosphate buffered saline, available from Life Technologies, Rockvile, Md.). At harvest, the cells were washed once with PBS and the pellets were dissolved in 550 μl of 1N NaOH. The total protein was determined by Bio-Rad assay (available from Bio-Rad of Hercules, Ca.) and the total radioactivity was determined by LSC. Following normalization of the protein amount, cpm/μg protein for each time point was compared to the peak drug time 0.

P-glycoprotein [2] = target: T1, P-glycoprotein (Homo sapiens, UniProt P08183); assay: in vitro; settings: Caco-2
T1 sequence (P08183 whole entry): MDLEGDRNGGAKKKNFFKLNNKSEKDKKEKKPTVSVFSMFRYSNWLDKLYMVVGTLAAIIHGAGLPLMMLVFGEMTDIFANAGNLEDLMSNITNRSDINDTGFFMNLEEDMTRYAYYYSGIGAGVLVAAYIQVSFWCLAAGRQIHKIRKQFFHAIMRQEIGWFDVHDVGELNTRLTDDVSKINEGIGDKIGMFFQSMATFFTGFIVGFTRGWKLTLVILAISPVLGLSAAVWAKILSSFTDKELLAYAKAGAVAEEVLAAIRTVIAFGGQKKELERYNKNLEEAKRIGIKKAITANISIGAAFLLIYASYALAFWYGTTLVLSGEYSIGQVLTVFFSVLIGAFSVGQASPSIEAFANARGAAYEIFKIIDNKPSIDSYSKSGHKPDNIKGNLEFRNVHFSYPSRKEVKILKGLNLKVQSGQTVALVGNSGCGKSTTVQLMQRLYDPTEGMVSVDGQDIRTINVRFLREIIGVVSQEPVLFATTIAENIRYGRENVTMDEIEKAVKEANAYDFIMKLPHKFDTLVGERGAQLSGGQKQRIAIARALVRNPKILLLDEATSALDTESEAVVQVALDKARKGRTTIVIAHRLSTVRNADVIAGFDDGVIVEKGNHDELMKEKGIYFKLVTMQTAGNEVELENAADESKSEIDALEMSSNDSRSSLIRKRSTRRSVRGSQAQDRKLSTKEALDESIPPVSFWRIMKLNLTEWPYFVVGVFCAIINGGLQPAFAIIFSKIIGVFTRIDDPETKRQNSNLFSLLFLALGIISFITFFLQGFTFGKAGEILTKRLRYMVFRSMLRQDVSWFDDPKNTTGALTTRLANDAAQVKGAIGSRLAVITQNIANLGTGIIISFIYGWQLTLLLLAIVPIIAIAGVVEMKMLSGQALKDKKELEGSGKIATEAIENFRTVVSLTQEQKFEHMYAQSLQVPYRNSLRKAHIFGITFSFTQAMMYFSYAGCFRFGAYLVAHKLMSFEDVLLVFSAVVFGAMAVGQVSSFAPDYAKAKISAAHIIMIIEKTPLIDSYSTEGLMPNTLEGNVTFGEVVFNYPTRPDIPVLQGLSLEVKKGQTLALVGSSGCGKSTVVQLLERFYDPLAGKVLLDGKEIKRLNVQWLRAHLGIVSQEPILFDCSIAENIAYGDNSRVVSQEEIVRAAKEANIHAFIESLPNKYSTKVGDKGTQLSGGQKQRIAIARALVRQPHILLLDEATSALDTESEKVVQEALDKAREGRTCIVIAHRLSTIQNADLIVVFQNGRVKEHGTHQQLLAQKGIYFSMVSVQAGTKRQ
Procedure: (§1) The cells were grown and maintained in DMEM (Dulbecco's modified eagle's medium, purchased from Gibco/BRL, Grand Island, N.Y.) supplemented with 10% fetal bovine serum and 2 mM L-glutamine.
(§2) Cell cultures were maintained, antibiotic free, in a 37° C. incubator with 90% relative humidity in an atmosphere of 5% CO2. The cells were maintained in 10 cm^2 stock plates and seeded onto polycarbonate Transwell™ HTS filter inserts at 4×10^5 cells/mL. The cells were cultured on the filters for about 27-30 days. Caco-2 cells having passages between 40 and 110 were used for the studies.
(§3) The integrity of the cell monolayers was determined by measuring the paracellular transepithelial transport of the integrity marker, Lucifer yellow, which is commercially available from Sigma Chemical of St. Louis, Mo.
(§4) The transport of vinblastine, which is the pharmaceutically active agent in these studies, was allowed to proceed for 120 minutes at 37° C. Stock concentrations (C0) of each of the P-glycoprotein inhibitors were treated similarly as dosed cells and were retained and sampled for starting dose. Aliquots for both the AP and the BL sides of the cell monolayers were taken at 2 hours, and such aliquots were analyzed by liquid scintillation counting (LSC) using a Packard Liquid Scintillation Counting machine. Calculation of the apparent permeability was done by using the following Artusson equation: [formula]
(§5) where dQ/dT is the flux rate (μg/sec), C0 is concentration of the starting material at t=0 (μg/mL), and A=the area of the monolayer (cm^2). For the triplicate wells the P(app) is the mean of the three individual P(app) values for each well.

P-glycoprotein [3] = target: T1, P-glycoprotein; assay: Vinblastine transepithelial bi-directional transport across Caco-2 cell monolayers with or without P-glycoprotein inhibitors; settings: Run 2, vinblastine 5 μM, inhibitor 10 μM
Procedure: as §1, §2, §3, §4, §5

[4] = system: HCT15 cells (which express P-glycoprotein); assay: Decrease of the IC50 of paclitaxel in HCT15 cells on adding a P-glycoprotein inhibitor; assay type: cell-based; settings: lopinavir 5 μM added to paclitaxel
P-glycoprotein [5] = target: T1, P-glycoprotein
Procedure: as §1, §2, §3
(§6) Stock concentrations (C0) of each of the P-glycoprotein inhibitors were treated similarly as dosed cells and were retained and sampled for starting dose. Aliquots for both the AP and the BL sides of the cell monolayers were taken at 2 hours, and such aliquots were analyzed by LSC Calculation of the apparent permeability by using the Artusson equation shown above. For the triplicate wells the P(app) is the mean of the three individual P(app) values for each well.

[6] = system: H460/T800 cells (which over express P-glycoprotein); assay: Reduction of the IC50 of paclitaxel in paclitaxel resistant H460/T800 cells on adding lopinavir; assay type: cell-based
P-glycoprotein [7] = target: T1, P-glycoprotein; assay: in vitro; settings: Caco-2, pH 7.4
Procedure: as §1, §2, §3, §6

[8] = 120 minutes at 37° C., mean ± SD of triplicate wells
[9] = Table 2B (printed Run 1), Caco-2, lopinavir or ritonavir 5 μM, CyA 10 μM, 120 minutes at 37° C., mean ± SD of triplicate wells

Compound: CC(C)c1nc(CN(C)C(=O)N[C@H](C(=O)N[C@@H](Cc2ccccc2)C[C@H](O)[C@H](Cc2ccccc2)NC(=O)OCc2cncs2)C(C)C)cs1 (relative stereo) [Ritonavir, [5S-(5R*,8R*,10R*,11R*)]-10-hydroxy-2-methyl-5-(1-methylethyl)-1-[2-(1-methylethyl)-4-thiazolyl]-3,6-dioxo-8,11-bis(phenylmethyl)-2,4,7,12-tetraazatridecan-13-oic acid, 5-thiazolylmethyl ester]
- elimination (efflux) by the HCT15 cells ([1]; in 15 minutes): rapidly eliminated

- Papp A→B at 120 min, 5 μM (P-glycoprotein [2]): 0.91 ± 0.07 ×10⁻⁶ cm/s
- Papp B→A at 120 min, 5 μM (P-glycoprotein [2]): 17.7 ± 0.39 ×10⁻⁶ cm/s
- efflux ratio at 120 min, 5 μM (P-glycoprotein [2]): 19.5
- Ratio (BL-AP/AP-BL) (P-glycoprotein [3]): 30.02
- P(app) AP-BL (P-glycoprotein [3]; [8]): 0.49 ± 0.00 1 × 10(−6) cm/sec
- P(app) BL-AP (P-glycoprotein [3]; [8]): 14.71 ± 3.33 1 × 10(−6) cm/sec
Compound: CC[C@]1(O)C[C@@H]2CN(CCc3c([nH]c4ccccc34)[C@@](C(=O)OC)(c3cc4c(cc3OC)N(C)[C@H]3[C@@](O)(C(=O)OC)[C@H](OC(C)=O)[C@]5(CC)C=CCN6CC[C@]43[C@@H]65)C2)C1 [Vinblastine, vinblastine]

- decrease in the IC50 of paclitaxel [4]: 9 fold
- substrate for P-glycoprotein (conclusion from Tables 2A and 2B) (P-glycoprotein [5]; Caco-2 bi-directional permeability with or without cyclosporin A): not a substrate for P-glycoprotein
- P(app) AP-BL (P-glycoprotein [5]; [9]): 18.72 ± 1.04 1 × 10(−6) cm/sec
- P(app) BL-AP (P-glycoprotein [5]; [9]): 17.42 ± 4.37 1 × 10(−6) cm/sec
- reduction of the IC50 of paclitaxel ([6]; lopinavir 5 μM with paclitaxel): 11 fold
- reduction of the IC50 of paclitaxel ([6]; lopinavir 10 μM with paclitaxel): 21 fold
- Papp A→B at 120 min, 5 μM (P-glycoprotein [7]): 10.7 ± 0.58 ×10⁻⁶ cm/s
- Papp B→A at 120 min, 5 μM (P-glycoprotein [7]): 9.55 ± 2.1 ×10⁻⁶ cm/s
Compound: Cc1cccc(C)c1OCC(=O)N[C@@H](Cc1ccccc1)[C@@H](O)C[C@H](Cc1ccccc1)NC(=O)[C@H](C(C)C)N1CCCNC1=O (relative stereo) [Lopinavir, [1S-[1R*,(R*),3R*,4R*]]-N-[4-[[(2,6-dimethylphenoxy)acetyl]amino]-3-hydroxy-5-phenyl-1-(phenylmethyl)pentyl]tetrahydro-alpha-(1-methylethyl)-2-oxo-(2H)-pyrimidine acetamide]
- compound remained in the HCT15 cells ([1]; after 60 minutes): approximately 80%

Source: US20020198160A1, “Compositions and methods for enhancing the bioavailability of pharmaceutical agents” (priority 2001, published 2002)
